Results taken from article PMC10535741, “Styrylpyridinium Derivatives for Fluorescent Cell Imaging” (Pharmaceuticals, 2023).
Several values for one entry are separate records, joined by “and”; a condition that tells them apart may be missing. Identical values can stand only once. Like-named read-outs stand apart in the source and are kept apart here.

Columns and labels:
[1] = Basal cytotoxicity, neutral red uptake (NRU) assay, with LD50 estimated from IC50; assay type: cell-based; settings: mouse
Protocol: The evaluation of the in vitro cytotoxicity (IC50, half maximal inhibitory concentration) of the abovementioned compounds and their structural derivatives was assessed using the standard colorimetric 3-(4,5-dimethylthiazol-2-yl)-2,5-diphenyltetrazolium bromide (MTT) assay on two monolayer tumour cell lines, namely HT-1080 (human connective tissue fibrosarcoma) and MH-22A (mouse hepatocarcinoma). Additionally, the impact of the compound on non-cancerous “normal” cells—mouse fibroblasts (NIH3T3)—was estimated in order to measure the basal toxicity (LD50, median lethal dose). The obtained results were used for investigation of the structure–activity relationships and exploration of the effect of substituents on cellular response and toxicity. The estimated LD50 gives information regarding the compound properties and could potentially be used to select promising compounds by providing a starting dose for in vivo experiments.
To assess basal cytotoxicity, the neutral red uptake (NRU) assay was conducted following a modified version of the standard protocol of Stokes’ [71], as validated by the NICEATM-ECVAM study. The NRU cytotoxicity assay determines the ability of viable cells to incorporate and bind a supravital dye, neutral red (NR).
NIH3T3 cells (9000 cells/well) were cultured in 96-well plates in DMEM medium supplemented with 5% FBS for 24 h. Subsequently, the cells were exposed to the test compounds over a range of seven concentrations (1000 µg/mL, 316 µg/mL, 100 µg/mL, 31 µg/mL, 10 µg/mL, 3.0 µg/mL, and 1.0 µg/mL) for 24 h. Untreated cells were used as a control. After the incubation period, the medium was removed from all plates and a solution of NR was added (250 µL, 0.05 mg/mL NR in DMEM 24 h pre-incubated at 37 °C and then filtered before use through a 0.22 µm syringe filter). The plates were incubated for 3 h, followed by three washes with phosphate-buffered saline (PBS). The cells were then treated with a mixture of ethanol (50%) and water (49%) supplemented with 1% acetic acid. The absorbance of NR was measured using a spectrophotometer multiplate reader (Infinite M1000; Tecan Austria GmbH, Salzburg, Austria) at 540 nm. The optical density (OD) was then calculated using the following formula: ODtreated cells×100/ODcontrol cells.
The IC50 values were calculated using the program Graph Pad Prism® 3.0.
In vitro test results were employed to estimate the starting dose for acute oral systemic toxicity tests in rodents (LD50). The LD50 value was calculated using the in vitro IC50 value and a following formula: logLD50(mM/kg)=0.439×logIC50(mM)+0.621
The value was then converted to mg/kg and the compounds classified into four toxicity categories. Category 1 (highly toxic): LD50 ≤ 5 mg/kg; Category 2 (moderately toxic): 5 < LD50 ≤ 50 mg/kg; Category 3 (slightly toxic): 50 < LD50 ≤ 300 mg/kg; Category 4 (practically non-toxic): 300 < LD50 ≤ 2000 mg/kg.

[2] = Excitation/emission fluorescence spectra; assay type: physicochemical; settings: for fluor. max. λ, nm / excitation λ, nm: DMSO solution; for excitation λ, nm: excitation giving maximum fluorescence intensity; for Stokes' shift, nm: DMSO
Protocol: The resonance structures of compounds 6d,e (Figure 2a) show a possibly intramolecular charge transfer between the julolidine moiety and the pyridinium unit. The normalised fluorescence spectra of the tested compounds 6a–e and 7a,b in DMSO solution (Figure 2c) and the fluorescence spectra of compound 6e in various media (Figure 2d) were measured using a spectrophotometer multiplate reader (Infinite M1000). The UV/Vis spectra in DMSO solution of compounds 6a–g (Figure 2b) were reordered with a UV/Vis spectrophotometer, and the fluorescence spectra of compound 6e in EtOH–glycerol mixtures (Figure 2e) were collected with a Spectrofluorometer FS5.
According to the calculations, the excitation occurs at 542 nm and the emission at 765 nm. The obtained theoretical calculation data are in good agreement with the experimental data, where the excitation occurs at 530 nm and the emission at 760 nm (Table 3).
We have also tested whether the characteristics of compound 6e depended upon the viscosity of its surrounding environment. […] It was underlined that water media reduced the fluorescence quantum yields and the lifetime of organic fluorophores by up to threefold. […] In pure glycerol, the maximum value of fluorescence was detected at 645 nm. As the amount of glycerol decreased, the fluorescence intensity of the sample decreased as well. The second fluorescence maximum at 720 nm was observed when the amount of ethanol had reached approximately 50% in the composition.
A concentration of 10 mM stock solution of compounds 6 or 7 was prepared by dissolving the compounds in DMSO. Working solutions were prepared by diluting the 10 mM stock solution of compounds with different solvents to reach the final concentration for the samples: DMSO (compound concentration 0.1 mM); for compound 6e: in glycerol (concentration 0.01 mM), in water (concentration 0.5 mM), in 0.1 M HCl (concentration 0.5 mM), in 0.1 M NaOH (concentration 0.5 mM), or in 1% DMSO/99% water (concentration […]). The fluorescence spectra were measured using a spectrophotometer multiplate reader (Tecan Infinite M1000; Tecan Austria GmbH, Salzburg, Austria). For excitation/emission fluorescence spectra measurements, the following measurement parameters were applied: excitation wavelength from 260 nm to 690 nm with a 10 nm sampling interval and emission wavelength from 300 nm to 840 nm with a 10 nm sampling interval. The fluorescence spectra of compound 6e (concentration 5 mM) in EtOH–glycerol mixtures were measured with an Edinburgh Instruments FS5 Spectrofluorometer (Edinburgh Instruments Ltd., Kirkton Campus, UK). The data were analysed using Microsoft Excel software version 2308.

[3] = estimated from in vitro NRU IC50 (24 h), read-out: Basal cytotoxicity (NIH3T3) LD50 mM/kg
[4] = estimated from in vitro NRU IC50 (24 h) by log LD50 = 0.439 x log IC50 + 0.621, read-out: Basal Cytotoxicity (NIH3T3) LD50

SMILES | LD50 at 24 h ([1]; NIH3T3 cells, estimated from in vitro NRU IC50 (24 h) by log LD50 = 0.439 x log IC50 + 0.621, read-out: Basal Cytotoxicity (NIH3T3) LD50) [mg/kg] | LD50 at 24 h [1, 3] [µmol/kg] | fluor. max. λ, nm [2] | excitation λ, nm [2] [nm] | LD50 at 24 h [1, 4] [mg/kg] | Stokes' shift, nm [2] [nm] | second fluorescence maximum ([2]; EtOH-glycerol mixture, ethanol approximately 50%) [nm] | fluorescence emission maximum wavelength ([2]; pure glycerol) [nm]
CCCCCCCCCCCC[n+]1ccc(C=Cc2cc(OC)c(OC)c(OC)c2)cc1.[Br-] [Compound 6a, 4-(3,4,5-trimethoxystyryl)-N-dodecylpyridinium bromide] | 249 ± 3 | 500 | 580 nm | 380 | – | – | – | –
CCCCCCCCCCCCCCCC[n+]1ccc(C=Cc2cc(OC)c(OC)c(OC)c2)cc1.[Br-] [Compound 6b] | – | – | 580 nm | 380 | – | – | – | –
CCCCCCCCCCCCCCCC[n+]1ccc(C=CC=Cc2ccc(OC)cc2)cc1.[Br-] [Compound 6c, 1-hexadecyl-4-(4-(4-methoxyphenyl)buta-1,3-dien-1-yl)pyridin-1-ium bromide] | – | 160 | 760 nm and ~ 760 nm | 530 | 85 ± 7 | 352 | – | –
CCCCCCCCCCCC[n+]1ccc(C=Cc2cc3c4c(c2)CCCN4CCC3)cc1.[Br-] [Compound 6d, 1-dodecyl-4-(2-(2,3,6,7-tetrahydro-1H,5H-pyrido[3,2,1-ij]quinolin-9-yl)vinyl)pyridin-1-ium bromide] | – | 300 | 660 nm | 530 | 169 ± 18 | – | – | –
CCCCCCCCCCCCCCCC[n+]1ccc(C=CC=Cc2cc3c4c(c2)CCCN4CCC3)cc1.[Br-] [Compound 6e, 1-hexadecyl-4-(4-(2,3,6,7-tetrahydro-1H,5H-pyrido[3,2,1-ij]quinolin-9-yl)buta-1,3-dien-1-yl)pyridin-1-ium bromide] | – | 800 | 760 nm and ~ 760 nm | 530 | 477 ± 11 | 240 | 720 | 645
C(=C\c1cc2c3c(c1)CCCN3CCC2)/c1cc[n+](CCC[n+]2ccc(/C=C/c3cc4c5c(c3)CCCN5CCC4)cc2)cc1 [Compound 7a] | – | – | 660 nm | 530 | 1100 ± 20 | – | – | –
C(C=Cc1cc2c3c(c1)CCCN3CCC2)=Cc1cc[n+](CCC[n+]2ccc(C=CC=Cc3cc4c5c(c3)CCCN5CCC4)cc2)cc1.[Br-].[Br-] [Compound 7b, 1,1′-(propane-1,3-diyl)bis(4-(4-(2,3,6,7-tetrahydro-1H,5H-pyrido[3,2,1-ij]quinolin-9-yl)buta-1,3-dien-1-yl)pyridin-1-ium) dibromide] | – | – | 770 nm and ~ 760 nm | 530 | 857 ± 13 | – | – | –
